Laboratory results: publication PMC6114082, “Synthesis of aminophenylhydroxamate and aminobenzylhydroxamate derivatives and in vitro screening for antiparasitic and histone deacetylase inhibitory activity” (International Journal for Parasitology: Drugs and Drug …, 2018)

What was measured:
[1] = biological target: T1, HDAC 3 (Homo sapiens, UniProt O15379); assay: Fluorometric HDAC assay, recombinant HDAC3; type: biochemical
T1 construct: purchased Active Motif, Belgium
Procedure: (§1) The HDACi effect against HeLa nuclear extracts and recombinant proteins were measured using a fluorometric HDAC assay kit (Active Motif, Belgium) according to the manufacturer's instructions. […] A negative control containing trichostatin A at a final concentration of 2 μM was analyzed for each independent experiment.

[2] = system: L. infantum MHOM/MA/67/ITMAP-264; assay: Antileishmanial activity, L. infantum promastigotes (luciferase expressing strain); type: cell-based, Leishmania infantum
Procedure: (§2) The antitrypanosomatid activity of the compounds was ascertained as follows. Leishmania parasites were cultured at 26 °C in SDM-79 medium supplemented with 10% fetal calf serum (FCS), and the antileishmanial activity was determined according to a previously published protocol for LUC-expressing and wild-type Leishmania ([Sereno et al., 2001], [Abbassi et al., 2008]). Trypanosoma brucei gambiense were grown at 26 °C in Cunningham's medium supplemented with 10% FCS, 2 mM GlutaMAX-1 (Gibco, USA), 100 U/ml penicillin, 100 μg/ml streptomycin and […] bovine hemin. The epimastigote form of Trypanosoma cruzi (strain Y cl7 scl2, lineage Tc2) (kindly provided by Philippe Truc and Christian Barnabé, UMR 177 IRD-CIRAD InterTryp, Montpellier, France) were grown at 26 °C in liver infusion tryptose (LIT) medium, supplemented with 10% FCS, 2 mM GlutaMAX™-I, 100 U/ml penicillin, 100 μg/ml streptomycin and bovine hemin (20 mg/l) (Gibco). The antitrypanosomatids activity was determined using a protocol that was initialy set up for wild-type Leishmania ([Abbassi et al., 2008]). To assess the drug activity on Toxoplasma gondii, confluent human foreskin fibroblast (HFF) monolayers were infected with YFP-type I Rh kindly provided by B. Striepen, see ([Striepen et al., 1998]) or Tomato-type II Pru kindly provided by N. Blanchard (Toulouse), expressing parasites at 5 × 10^4 per well, which were then centrifuged for 30 s at 1300 rpm and incubated for 30 min in a water bath at 37 °C to allow invasion. The wells were then washed three times with PBS to eliminate extracellular parasites, and the drugs were added at various concentrations ranging from 1 to 50 μM. After incubation for 24 h at 37 °C in a humidified atmosphere containing 5% CO2, the cells were fixed in 2.5% methanol-free formaldehyde (Tebu-bio)/PBS for 30 min at room temperature. Nuclei were stained with Hoechst 33258 (2 μg/ml, Molecular Probes) for 20 min and then washed three times with water for 10 min each time. The number of infected cells, i.e., cells harboring a parasitophorous vacuole, and the number of parasites per vacuole were determined using an Olympus ScanR microscope ( × 20 objective) and ScanR software. The parasitic index in % compared to the control was calculated as follows: (PI=((number of parasite/100 cells in treated wells) x (% of infected macrophage in treated well)/(number of parasite/100 cells in untreated wells) x (% of infected macrophage in untreated wells))*100).

[3] = biological target: T2, HDAC 6 (Homo sapiens, UniProt Q9UBN7); assay: Fluorometric HDAC assay, recombinant HDAC6; type: biochemical
T2 construct: purchased Active Motif, Belgium
T2 sequence (Q9UBN7 1-1215): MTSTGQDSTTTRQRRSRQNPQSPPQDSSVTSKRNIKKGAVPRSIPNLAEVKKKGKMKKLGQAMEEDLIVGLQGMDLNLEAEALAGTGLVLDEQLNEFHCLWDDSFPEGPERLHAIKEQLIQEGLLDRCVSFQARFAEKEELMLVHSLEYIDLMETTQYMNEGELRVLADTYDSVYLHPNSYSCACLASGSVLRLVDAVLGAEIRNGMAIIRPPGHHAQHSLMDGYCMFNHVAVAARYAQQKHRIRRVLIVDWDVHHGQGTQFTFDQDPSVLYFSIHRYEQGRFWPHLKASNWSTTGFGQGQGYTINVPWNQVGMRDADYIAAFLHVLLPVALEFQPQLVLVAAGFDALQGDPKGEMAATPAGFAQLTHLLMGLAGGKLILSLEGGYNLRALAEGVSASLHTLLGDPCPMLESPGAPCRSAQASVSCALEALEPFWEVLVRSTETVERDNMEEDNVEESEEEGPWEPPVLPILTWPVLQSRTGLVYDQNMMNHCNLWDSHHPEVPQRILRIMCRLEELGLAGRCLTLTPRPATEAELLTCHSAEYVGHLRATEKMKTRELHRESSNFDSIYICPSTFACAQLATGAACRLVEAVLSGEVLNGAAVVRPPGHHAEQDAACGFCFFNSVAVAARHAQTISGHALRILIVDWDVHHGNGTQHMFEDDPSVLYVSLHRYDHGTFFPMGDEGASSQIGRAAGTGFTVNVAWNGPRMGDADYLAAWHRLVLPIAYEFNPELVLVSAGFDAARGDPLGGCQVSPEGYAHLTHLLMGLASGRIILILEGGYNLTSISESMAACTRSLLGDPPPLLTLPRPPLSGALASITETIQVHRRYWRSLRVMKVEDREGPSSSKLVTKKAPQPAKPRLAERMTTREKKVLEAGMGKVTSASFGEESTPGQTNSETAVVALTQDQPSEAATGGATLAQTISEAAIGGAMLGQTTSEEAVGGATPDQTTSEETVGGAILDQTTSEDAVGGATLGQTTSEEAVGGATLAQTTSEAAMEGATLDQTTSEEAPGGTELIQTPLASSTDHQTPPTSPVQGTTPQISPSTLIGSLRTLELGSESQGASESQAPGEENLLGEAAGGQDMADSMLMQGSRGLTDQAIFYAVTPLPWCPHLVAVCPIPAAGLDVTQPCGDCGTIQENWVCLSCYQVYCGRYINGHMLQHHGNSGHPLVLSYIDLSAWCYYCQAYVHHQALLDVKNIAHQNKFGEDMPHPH
Procedure: as §1

[4] = system: T. brucei MHOM/CI/81/DAL967; assay: Antitrypanosomal activity, T. brucei; type: cell-based, Trypanosoma brucei gambiense; conditions: Trypanosoma brucei
Procedure: as §2

[5] = system: T. gondi RH-YFP; assay: Anti-Toxoplasma activity in infected HFF monolayers, type I RH-YFP (parasitic index); type: cell-based, Toxoplasma gondii

T1 sequence (O15379 whole entry): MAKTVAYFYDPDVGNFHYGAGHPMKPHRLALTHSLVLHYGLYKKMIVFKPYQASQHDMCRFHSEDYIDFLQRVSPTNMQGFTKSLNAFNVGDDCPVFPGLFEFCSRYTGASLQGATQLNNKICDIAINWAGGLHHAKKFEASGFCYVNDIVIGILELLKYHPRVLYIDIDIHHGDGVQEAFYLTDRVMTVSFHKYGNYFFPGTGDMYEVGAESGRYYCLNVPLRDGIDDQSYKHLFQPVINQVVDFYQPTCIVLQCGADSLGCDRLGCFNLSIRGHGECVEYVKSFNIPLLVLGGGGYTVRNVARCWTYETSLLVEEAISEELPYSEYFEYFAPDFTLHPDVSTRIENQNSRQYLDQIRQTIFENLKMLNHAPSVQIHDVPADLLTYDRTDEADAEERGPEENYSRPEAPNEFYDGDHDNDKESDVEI
T1 sequence (O75376 395-489 partner limits assumed): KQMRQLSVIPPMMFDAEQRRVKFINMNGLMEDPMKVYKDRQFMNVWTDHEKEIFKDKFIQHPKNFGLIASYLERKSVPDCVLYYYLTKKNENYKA

Structure (SMILES): COc1cccc(CC(=O)Nc2ccc(C(=O)NO)cc2)c1 [Compound 363, N-hydroxy-4-[2-(3-methoxyphenyl)acetamido]benzamide]
- Fold, HDAC 3 ([1]; 363 as compared to SAHA): 1.06
- IC50 ([1]; recombinant protein, read-out: rHDAC 3 IC50): 160 ± 52 nM
- IS^b selectivity index for L. infantum ([2]; IC50 THP-1 / IC50 Leishmania infantum (footnote)): <1
- IC50 ([2]; Leishmania infantum, promastigotes, luciferase expressing strain): > 60000 nM
- Fold, HDAC 6 ([3]; 363 as compared to SAHA): 34.9
- IC50 ([3]; recombinant protein, read-out: rHDAC 6 IC50): 45 ± 15 nM
- IC50 [4]: > 60000 nM
- IS^a selectivity index for T. gondi ([5]; IC50 HFF / IC50 T. gondi RH-YFP): 300
- IC50 ([5]; Toxoplasma gondii, read-out: anti-Toxoplasma activity IC50, range over strains, type I and type II strains together (abstract)): 350 to 2250 nM
- selectivity index, range over human cell lines ([5]; using different human cell lines): 10–300
